Source: PubChem BioAssay (NCI)
Several values for one entry are separate records, joined by “and”; a condition that tells them apart may be missing. Equal values may be shown once.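 Assay format: 96-well plates, 48-hour exposure. Abbreviation: GI50, concentration required for 50% inhibition of growth. TGI: concentration producing complete growth inhibition.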

Columns and labels:
Assay in all cases: DTP human tumour cell line panel, 48 h
IGROV1 ovarian = system: IGROV1 ovarian
SN12C renal = system: SN12C renal
MOLT-4 leukemia = system: MOLT-4 leukemia
UACC-62 melanoma = system: UACC-62 melanoma
EKVX NSCLC = system: EKVX NSCLC
786-0 renal = system: 786-0 renal
SF-539 CNS = system: SF-539 CNS
SW-620 colon = system: SW-620 colon
MCF7 breast = system: MCF7 breast
MDA-MB-231 breast = system: MDA-MB-231 breast

| SMILES | TGI (IGROV1 ovarian) | TGI (SN12C renal) | TGI (MOLT-4 leukemia) | TGI (UACC-62 melanoma) | TGI (EKVX NSCLC) | TGI (786-0 renal) | TGI (SF-539 CNS) | TGI (SW-620 colon) | GI50 (IGROV1 ovarian) | GI50 (MCF7 breast) | TGI (MCF7 breast) | GI50 (SN12C renal) | GI50 (MOLT-4 leukemia) | GI50 (UACC-62 melanoma) | GI50 (786-0 renal) | GI50 (MDA-MB-231 breast) | TGI (MDA-MB-231 breast) | GI50 (SF-539 CNS) | GI50 (SW-620 colon) | GI50 (EKVX NSCLC) |
| --- | --- | --- | --- | --- | --- | --- | --- | --- | --- | --- | --- | --- | --- | --- | --- | --- | --- | --- | --- | --- |
| CCCCCCCC(=O)NCC(O)CNC(=O)CCCCCCC | > 100 µM | > 100 µM | > 100 µM | > 100 µM | > 100 µM | > 100 µM | > 100 µM | > 100 µM |  |  |  |  |  |  |  |  |  |  |  |  |
| Nc1ncnc2c1ncn2Cc1ccc(C23CC4CC(CC(C4)C2)C3)c(OCc2cc(F)c(F)cc2F)c1 | > 100 µM | 67.5 µM | 7.97 µM | > 100 µM |  | > 100 µM | > 100 µM | > 100 µM | 7.54 µM | 6.37 µM | 30.2 µM | 11.7 µM | 2.69 µM | 4.75 µM | 17.5 µM | 6.39 µM | > 100 µM | 50.2 µM | 7.25 µM |  |
| Cc1ccccc1C1=[N+]([O-])c2ccccc2C1=O | 34.9 µM | 32.1 µM | 49.2 µM | 34.6 µM | 35.4 µM | 31.3 µM | 33.7 µM | 45.1 µM |  |  |  |  |  |  |  |  |  |  |  |  |
| CCOC(=O)c1c(-c2ccccc2)oc(-c2ccccc2)c1C(=O)OCC | > 100 µM | > 100 µM | > 100 µM | > 100 µM | > 100 µM | > 100 µM | > 100 µM | > 100 µM |  |  |  |  |  |  |  |  |  |  |  |  |
| CC(=O)Oc1cc(C)c2c(c1OC(C)=O)CC1(O2)[C@@H](C)CCC2[C@@]3(C)CC[C@H](OC(C)=O)C(C)(C)C3CC[C@]21C (stereo partly drawn) | 4.49 µM | 11.8 µM | 42.2 µM | 5.26 µM | 11.4 µM | 7.46 µM | 7.23 µM | 12.3 µM |  |  |  |  |  |  |  |  |  |  |  |  |
| O=C(O)C1=CCCc2ccc3ccccc3c21 | > 100 µM | > 100 µM | > 100 µM | > 100 µM | > 100 µM | > 100 µM | > 100 µM | > 100 µM |  |  |  |  |  |  |  |  |  |  |  |  |
| CSc1cccc(-n2c3nc(=O)n(C)c(=O)c-3nc3ccccc32)c1 | 36 µM | 17.9 µM | 32.3 µM | 6.14 µM | 36.6 µM | 33.4 µM | 12.4 µM | 22 µM |  |  |  |  |  |  |  |  |  |  |  |  |
| CC(=O)N1c2ccccc2C2=CC3C4C(=O)N(c5ccccc5)C(=O)C4C21C1C(=O)N(c2ccccc2)C(=O)C31 (stereo not drawn) | > 100 µM | > 100 µM | > 100 µM | > 100 µM |  | > 100 µM | 6.66 µM | > 100 µM |  |  |  |  |  |  |  |  |  |  |  |  |
| N#C/C(=N\Nc1ccc(Cl)cc1)C(=O)Nc1cc(-c2ccccc2)nn1-c1ccccc1 | > 100 µM | > 100 µM | > 100 µM | > 100 µM | > 100 µM | > 100 µM | > 100 µM | > 100 µM | 4.12 µM |  |  | 2.44 µM | 3.5 µM | 2.03 µM | 4.05 µM | 2.86 µM | > 100 µM | 3.29 µM | 3.11 µM | 2.64 µM |
| Cn1cc(C2=C(c3cccc(N)c3)C(=O)NC2=O)c2ccccc21 | > 25 µM | > 25 µM | > 25 µM | > 25 µM |  | > 25 µM | > 25 µM | > 25 µM | > 22.4 µM | 4.19 µM | > 25 µM | 13.7 µM | 14.1 µM | 12.6 µM | 14 µM | 4.52 µM | > 25 µM | 4.07 µM | 17.8 µM |  |
| CCN(CC)CCCn1cnc2ncccc2c1=O | > 100 µM | > 100 µM |  | > 100 µM | > 100 µM | > 100 µM | > 100 µM | > 100 µM |  |  |  |  |  |  |  |  |  |  |  |  |
| COc1cc(-c2nc3sccn3c2-c2ccnc(NCCNS(=O)(=O)c3ccc(Cl)cc3)n2)ccc1F | > 100 µM | > 100 µM | > 100 µM | 5.2 µM | > 100 µM | > 100 µM | > 100 µM | > 100 µM | 3 µM | 3.24 µM | > 100 µM | 4.11 µM | 1.42 µM | 1.39 µM | 7.77 µM |  |  | 6.98 µM | 10.8 µM | 5.04 µM |
| Cc1oc2c(C)c3oc(=O)cc(C)c3cc2c1CNC(=O)[C@@H]1OCCOCCOCCOCCOCCOC1C(=O)O (stereo partly drawn) | > 100 µM | > 100 µM | > 100 µM | > 100 µM | > 100 µM | 45 µM | > 100 µM | > 100 µM |  |  |  |  |  |  |  |  |  |  |  |  |
| Clc1cc2c(cc1Cl)Oc1cc(Cl)c(Cl)cc1O2 | > 0.625 µM | > 0.625 µM | > 0.625 µM | > 0.625 µM |  | > 0.625 µM | > 0.625 µM | > 0.625 µM | > 0.625 µM | > 0.625 µM | > 0.625 µM | > 0.625 µM | > 0.625 µM | > 0.625 µM | > 0.625 µM | > 0.625 µM | > 0.625 µM | > 0.625 µM | > 0.625 µM |  |
| O=C1C2C(C(=O)[N]1[Hg][c]1cccs1)C1(Cl)C(Cl)=C(Cl)C2(Cl)C1(Cl)Cl (stereo not drawn) | 3.52 µM |  | 5.01 µM | 2.89 µM | 4.2 µM | 1.81 µM | 4.76 µM | 3.08 µM | 1.29 µM | 0.386 µM | 1.94 µM |  | 0.371 µM | 1.27 µM | 0.67 µM |  |  | 2.08 µM | 1.02 µM | 1.83 µM |
| CC1(Cl)CC2OC3(Br)C=CC(C)(O)C2(CC1Br)C3(C)C (stereo not drawn) | > 100 µM | > 100 µM | > 100 µM | > 100 µM | > 100 µM | > 100 µM | > 100 µM | > 100 µM |  |  |  |  |  |  |  |  |  |  |  |  |
| C/C(=N\NC(N)=S)c1cc(C)c(C)cc1C | > 100 µM | > 100 µM | 84.5 µM | > 100 µM | > 100 µM | > 100 µM | > 100 µM | > 100 µM |  |  |  |  |  |  |  |  |  |  |  |  |
| O=C(C=Nc1ccccc1C(=O)[O-])c1cccs1.O=C(C=Nc1ccccc1C(=O)[O-])c1cccs1.[Co+2] | > 100 µM | > 100 µM | > 100 µM | > 100 µM |  | > 100 µM | > 100 µM | > 100 µM |  |  |  |  |  |  |  |  |  |  |  |  |
| COc1ccc2c(c1O)C13CCN(C)C(C2)C1CCC1(C3)OCCO1 (stereo not drawn) | > 100 µM | > 100 µM | > 100 µM | > 100 µM | > 100 µM | > 100 µM |  | > 100 µM |  |  | > 100 µM |  |  |  |  |  | > 100 µM |  |  |  |
| CC(=O)O[C@@]12CO[C@@H]1C[C@H](O)[C@@]1(C)C(=O)[C@H](O)C3=C(C)[C@@H](OC(=O)[C@H](O)[C@@H](NC(=O)OC(C)(C)C)c4ccccc4)C[C@@](O)([C@@H](OC(=O)c4ccccc4)[C@H]21)C3(C)C | > 79 µM | > 68.3 µM | 50.1 µM |  |  | > 100 µM | 0.0612 µM and 0.0251 µM | > 68.4 µM | 0.0593 µM and 0.0198 µM |  | 78.4 µM | 0.0224 µM and 0.00869 µM | 0.0337 µM and 0.00877 µM | 0.0141 µM and 0.112 µM | 0.0612 µM and 0.00824 µM |  |  | 0.00666 µM and 0.0056 µM | 0.00764 µM and 0.00646 µM | 0.0464 µM |
